# Source: patent US20040156869A1, “2-substituted quinazolin-4-ylamine analogues” (Neurogen Corporation, priority 2002, published 2004)
# Target: human capsaicin receptor (VR1) (Homo sapiens, UniProt Q8NER1)
# Assay: Capsaicin receptor binding assay ([3H]RTX competition, VR1-transfected HEK293 membranes)
# Sequence of human capsaicin receptor (VR1) (Q8NER1 whole entry): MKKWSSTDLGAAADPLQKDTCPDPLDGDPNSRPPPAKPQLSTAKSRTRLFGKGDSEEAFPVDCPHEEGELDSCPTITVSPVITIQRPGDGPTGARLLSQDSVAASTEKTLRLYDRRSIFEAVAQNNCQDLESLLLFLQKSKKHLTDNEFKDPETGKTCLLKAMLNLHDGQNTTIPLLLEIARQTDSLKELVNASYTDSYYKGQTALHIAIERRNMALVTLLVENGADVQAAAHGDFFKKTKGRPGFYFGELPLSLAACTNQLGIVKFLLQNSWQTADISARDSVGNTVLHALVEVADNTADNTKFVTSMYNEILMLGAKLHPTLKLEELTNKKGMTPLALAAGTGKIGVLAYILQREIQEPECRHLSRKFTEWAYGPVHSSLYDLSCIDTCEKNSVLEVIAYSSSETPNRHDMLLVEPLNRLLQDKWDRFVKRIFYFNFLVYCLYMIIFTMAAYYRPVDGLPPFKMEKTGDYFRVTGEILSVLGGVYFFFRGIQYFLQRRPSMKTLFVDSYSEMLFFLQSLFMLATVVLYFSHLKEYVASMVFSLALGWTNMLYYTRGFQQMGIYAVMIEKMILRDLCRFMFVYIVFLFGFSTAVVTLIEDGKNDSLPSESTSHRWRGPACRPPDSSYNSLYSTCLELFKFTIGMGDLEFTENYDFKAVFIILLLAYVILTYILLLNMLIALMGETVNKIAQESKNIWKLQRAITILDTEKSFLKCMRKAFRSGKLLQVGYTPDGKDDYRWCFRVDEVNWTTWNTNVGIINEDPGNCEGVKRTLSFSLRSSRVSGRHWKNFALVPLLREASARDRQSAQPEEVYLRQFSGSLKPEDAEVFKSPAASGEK
row,Ki,SMILES
1,< 1 µM,"CN1CCC(OCc2nc(Nc3ccc(C(F)(F)F)nc3)c3ccc(-c4ncccc4C(F)(F)F)cc3n2)CC1 [Compound 31, [2-(1-Methyl-piperidin-4-yloxymethyl)-7-(3-trifluoromethyl-pyridin-2-yl)-quinazolin-4-yl]-(6-trifluoromethyl-pyridin-3-yl)-amine]"
2,< 1 µM,"FC(F)(F)c1ccc(Nc2nc(C3N=NN=N3)nc3cc(-c4ncccc4C(F)(F)F)ccc23)cc1 [Compound 510, [2-(5H-Tetrazol-5-yl)-7-(3-trifluoromethyl-pyridin-2-yl)-quinazolin-4-yl]-(4-trifluoromethyl-phenyl)-amine]"
3,< 1 µM,"COCCN(CCOC)Cc1nc(Nc2ccc(C(C)C)cc2)c2ccc(-c3ncccc3C)cc2n1 [Compound 719, [2-{[Bis-(2-methoxy-ethyl)-amino]-methyl}-7-(3-methyl-pyridin-2-yl)-quinazolin-4-yl]-(4-isopropyl-phenyl)-amine]"
4,< 1 µM,"COCc1cc(Nc2ccc(S(=O)(=O)C(F)(F)F)cc2)c2ccc(-c3ncccc3C(F)(F)F)nc2n1 [Compound 308, [2-Methoxymethyl-7-(3-trifluoromethyl-pyridin-2-yl)-[1,8]naphthyridin-4-yl]-(4-trifluoromethanesulfonyl-phenyl)-amine]"
5,< 1 µM,"CCN(Cc1nc(Nc2ccc(C(C)C)cc2)c2ccc(-c3ncccc3C)cc2n1)C(C)C [Compound 717, [2-[(Ethyl-isopropyl-amino)-methyl]-7-(3-methyl-pyridin-2-yl)-quinazolin-4-yl]-(4-isopropyl-phenyl)-amine]"
6,< 1 µM,"Cc1cccc(-c2ccc3c(Nc4ccc(C(C)(C)C)cc4)nc(CN4C[C@@H](C)O[C@@H](C)C4)nc3c2)n1 [Compound 637, (4-tert-Butyl-phenyl)-[2-(2,6-dimethyl-morpholin-4-ylmethyl)-7-(6-methyl-pyridin-2-yl)-quinazolin-4-yl]amine (cis)]"
7,< 1 µM,"O=C(c1nc(Nc2ccc(C(F)(F)F)cc2)c2ccc(-c3ncccc3C(F)(F)F)nc2n1)N1CCN(C2CCCC2)CC1 [Compound 473, (4-Cyclopentyl-piperazin-1-yl)-[4-(4-trifluoromethyl-phenylamino)-7-(3-trifluoromethyl-pyridin-2-yl)-pyrido[2,3-d]pyrimidin-2-yl]-methanone]"
8,< 1 µM,"CCOCc1nc(Nc2ccc(C(C)C)cc2)c2ccc(-c3ncccc3C)cc2n1 [Compound 104, [2-Ethoxymethyl-7-(3-methyl-pyridin-2-yl)-quinazolin-4-yl]-(4-isopropyl-phenyl)-amine]"
9,< 1 µM,"FC(F)(F)c1ccc(Nc2cc(CN3CC=CCC3)nc3nc(-c4ncccc4C(F)(F)F)ccc23)cc1 [Compound 816, [2-(3,6-Dihydro-2H-pyridin-1-ylmethyl)-7-(3-trifluoromethyl-pyridin-2-yl)-[1,8]naphthyridin-4-yl]-(4-trifluoromethyl-phenyl)-amine]"
10,< 1 µM,"C[C@@H]1CN(Cc2nc(Nc3ccc(C(C)(C)C)cc3)c3ccc(-c4cccnc4)cc3n2)C[C@H](C)O1 [Compound 676, (4-tert-Butyl-phenyl)-[2-(2,6-dimethyl-morpholin-4-ylmethyl)-7-pyridin-3-yl-quinazolin-4-yl]-amine (cis)]"
11,< 1 µM,"Cc1cccnc1-c1ccc2c(Nc3ccc(C(C)C)cc3)nc(CN3CCCC(C)(C)C3)nc2c1 [Compound 714, [2-(3,3-Dimethyl-piperidin-1-ylmethyl)-7-(3-methyl-pyridin-2-yl)-quinazolin-4-yl]-(4-isopropyl-phenyl)-amine]"
12,< 1 µM,"COCCN(CCOC)Cc1nc(Nc2ccc(C(F)(F)F)nc2)c2ccc(-c3ncccc3C(F)(F)F)cc2n1 [Compound 384, [2-{[Bis-(2-methoxy-ethyl)-amino]-methyl}-7-(3-trifluoromethyl-pyridin-2-yl)-quinazolin-4-yl]-(6-trifluoromethyl-pyridin-3-yl)-amine]"
13,< 1 µM,"FC(F)(F)c1ccc(Nc2nc(COCc3ccccc3)nc3cc(-c4ncccc4C(F)(F)F)ccc23)nc1 [Compound 26, [2-Benzyloxymethyl-7-(3-trifluoromethyl-pyridin-2-yl)-quinazolin-4-yl]-(5-trifluoromethyl-pyridin-2-yl)-amine]"
14,< 1 µM,"CN1CCCN(Cc2nc(Nc3ccc(C(F)(F)F)cc3)c3ccc(-c4ncccc4C(F)(F)F)cc3n2)CC1 [Compound 705, [2-(4-Methyl-[1,4]diazepan-1-ylmethyl)-7-(3-trifluoromethyl-pyridin-2-yl)-quinazolin-4-yl]-(4-trifluoromethyl-phenyl)-amine]"
15,< 1 µM,"OCC1CCCN(Cc2nc(Nc3ccc(C(F)(F)F)nc3)c3ccc(-c4ncccc4C(F)(F)F)cc3n2)C1 (centres unmarked) [Compound 490, {1-[7-(3-Trifluoromethyl-pyridin-2-yl)-4-(6-trifluoromethyl-pyridin-3-ylamino)-quinazolin-2-ylmethyl]-piperidin-3-yl}-methanol]"
16,< 1 µM,"C[C@@H]1CN(Cc2nc(Nc3ccc(C(F)(F)F)cc3)c3ccc(-c4ccccn4)cc3n2)C[C@H](C)O1 [Compound 619, [2-(2,6-Dimethyl-morpholin-4-ylmethyl)-7-pyridin-2-yl-quinazolin-4-yl]-(4-trifluoromethyl-phenyl)-amine (cis)]"
17,< 1 µM,"CCCCCCN(C)CCc1nc(Nc2ccc(C(F)(F)F)cc2)c2ccc(-c3ncccc3C(F)(F)F)cc2n1 [Compound 419, [2-[(Hexyl-methyl-amino)-ethyl]-7-(3-trifluoromethyl-pyridin-2-yl)-quinazolin-4-yl]-(4-trifluoromethyl-phenyl)-amine]"
18,< 1 µM,"CCOCc1nc(Nc2ccc(C3CCCC3)cc2)c2ccc(-c3ncccc3Cl)nc2n1 [Compound 137, [7-(3-Chloro-pyridin-2-yl)-2-ethoxymethyl-pyrido[2,3-d]pyrimidin-4-yl]-(4-cyclopentyl-phenyl)-amine]"
19,< 1 µM,"C[C@H]1CN(Cc2nc(Nc3ccc(Cl)cc3)c3ccc(-c4ncccc4Cl)cc3n2)C[C@H](C)O1 [Compound 644, (S,S)-(4-Chloro-phenyl)-[7-(3-chloro-pyridin-2-yl)-2-(2,6-dimethyl-morpholin-4-ylmethyl)-quinazolin-4-yl]-amine]"
20,< 1 µM,"C=CCN(C)Cc1nc(Nc2ccc(C(F)(F)F)nc2)c2ccc(-c3ncccc3C(F)(F)F)cc2n1 [Compound 367, [2-[(Allyl-methyl-amino)-methyl]-7-(3-trifluoromethyl-pyridin-2-yl)-quinazolin-4-yl]-(6-trifluoromethyl-pyridin-3-yl)-amine]"
21,< 1 µM,"COCc1cc(Nc2ccc(S(=O)(=O)C(C)C)cc2)c2ccc(-c3ncccc3C(F)(F)F)nc2n1 [Compound 306, [2-Methoxymethyl-7-(3-trifluoromethyl-pyridin-2-yl)-[1,8]naphthyridin-4-yl]-[4-(propane-2-sulfonyl)-phenyl]-amine]"
22,< 1 µM,"CN(C)CCN1CCN(Cc2nc(Nc3ccc(C(F)(F)F)cc3)c3ccc(-c4ncccc4C(F)(F)F)cc3n2)CC1 [Compound 515, [2-[4-(2-Dimethylamino-ethyl)-piperazin-1-ylmethyl]-7-(3-trifluoromethyl-pyridin-2-yl)-quinazolin-4-yl]-(4-trifluoromethyl-phenyl)-amine]"

row,SMILES,Ki
1,"CC(C)COCc1nc(Nc2ccc(C(F)(F)F)nc2)c2ccc(-c3ncccc3C(F)(F)F)nc2n1 [Compound 165, [2-Isobutoxymethyl-7-(3-trifluoromethyl-pyridin-2-yl)-pyrido[2,3-d]pyrimidin-4-yl]-(6-trifluoromethyl-pyridin-3-yl)-amine]",< 1 µM
